± gives the expanded uncertainty stated by the source.

Results on three compounds are retold here after the NIST ThermoML archive (doi:10.1016/j.fluid.2013.08.024).

The conditions of data set [1]: Crystal; DTA.
Data set [2] in a line: Molar enthalpy of transition or fusion. Conditions: Crystal; DSC.

On to `CCCCCCCCCCCC(=O)OCC` [ethyl dodecanoate], for which the Normal melting temperature in data set [1] was 0.1 ± 0.7 °C. Also, in data set [2], the “Molar enthalpy of transition or fusion” value amounted to 9.29 ± 0.263 kcal/mol.

Consider `CCCCCCCCCCCCCCCC(=O)OCC` [ethyl hexadecanoate], for which, in data set [1], the Normal melting temperature worked out at 25.08 ± 0.7 °C. In data set [2], the “Molar enthalpy of transition or fusion” value was found to be 13.3 ± 0.359 kcal/mol.

Take `CCCCCCCCCCCCCCCCCC(=O)OCC` [ethyl octadecanoate]: the Normal melting temperature in data set [1] turned out to be 34.2 ± 0.7 °C. The “Molar enthalpy of transition or fusion” value in data set [2] was found to be 14.3 ± 0.382 kcal/mol.
